The results in this text go back to patent US20100256145A1, “USE OF KCNQ POTASSIUM CHANNEL OPENERS FOR REDUCING SYMPTOMS OF OR TREATING DISORDERS OR CONDITIONS WHEREIN THE DOPAMINERGIC SYSTEM IS DISRUPTED” (H. LUNDBECK A/S, priority 2007, published 2010).

The subject of assay [1] is choice of the large-but-delayed reward (impulsivity). The assay is described as follows: Rat T-maze procedure: large-but-delayed vs small-but-immediate reward. The format is in vivo. The following applies: juvenile Wistar rats. As to the method: Subjects. male Wistar AF rats (28-41 days old) (Centre d′Elevage René Janvier, France) were used. […] During the whole study, tap water was provided ad libitum. Food was restricted to 5-10 g/day/animal in order to maintain animals at 65-75% of their free feeding weight
Experimental procedure. The experiments were performed in two identical T-maze apparatus constructed from opaque grey plastic tubing and consisting of a starting runway (30 cm long) and two arms (35 cm long) each leading to a rectangular black plastic goal box (18 cm large, 30 cm wide, 10 cm high). Removable grey plastic guillotine doors could be inserted into the vertical clefts, situated at the entry of the starting runway and at each end of the arms. One of the goal-boxes (left or right, depending on the rats) was constantly provided with a large reward, the other with a small reward. Large and small rewards consisted, respectively, of 5 and 1 pellets (20 mg, Technical & Scientific Equipment GmbH, Germany). The pellets were placed in a translucent food-cup before each trial.
First phase: habituation. Animals were first subjected to two 5-min sessions of habituation. The rat was gently introduced in the starting runway, which then was closed with a guillotine door inserted in the cleft (referred to as c0 in FIG. 1). The animal was allowed to freely explore the apparatus and to eat food rewards placed in the food cups.
Second phase: pretraining. After a door was placed in the cleft c2 near each goal-box, the rat was introduced in the starting runway. When it entered one of the two arms, a door was inserted behind it in the cleft c1 near the choice area and the door placed in cleft c2 was removed. As soon as the animal entered the goal-box, the door was placed again in the cleft c2. The rat was removed from the goal-box as soon as the pellets were eaten (usually within less than 1 min). The animal was then returned to its home cage for an intertrial interval of 2 to 3 min. Each rat was submitted one to five times/day to five trials sessions in this procedure. Training was initiated when the rat selected the arm giving access to the large reward in more than 14 out of 15 trials.
Third phase: training. Rats underwent one to five times/day five trials training sessions during which a delay was introduced before access to the large reward. After a door was placed in the cleft c2 near each goal-box, the rat was introduced in the starting runway. When it entered one of the two arms, a second door was inserted behind it in the cleft c1 near the choice area, so that rat selecting the arm leading to the large reward could be detained in this arm for a period (referred to as the waiting delay) before having access to the reinforcement. Otherwise, if the animal selected the arm leading to the small reward, the door placed in the cleft c2 was immediately opened, allowing the animal to enter the goal-box. At the beginning of training, the waiting delay was 30 sec. Then, if the percentage of choices of the large and delayed reward remained high (i.e. ≧40%) for more than six sessions, it was increased to 45 sec, and if necessary to 60 sec, 90 sec and finally 120 sec. Drug testing began when the animal selected the large and delayed reward in two trials out of five (or less) in two consecutive sessions and in one trial out of five (or less) in the following session.
Drug testing was conducted over six consecutive test-sessions of five trials each, during which the access to the large reward was preceded by the waiting delay. Test sessions were: Two control pre-drug sessions: control pre-drug session 1 and control pre-drug session 2; Two drug sessions: drug session 1 and drug session 2; Two control post-drug sessions: control post-drug session 1 and control post-drug session 2.

Assay [2] concerns dopaminergic neurons in the ventral tegmental area. The assay is described as follows: Spontaneous DA cell firing in the VTA of anaesthetised rats (extracellular single-cell recordings). The note with it: mean ± SEM.
Procedure: Subjects. Male Wistar rats (Harlan, The Netherlands) weighing 270-340 g are used. The animals are housed under a 12-hr light/dark cycle under controlled conditions for regular in-door temperature (21±2° C.) and humidity (55±5%) with food and tap water available ad libitum.
Administration of compound. […] These i.v. doses match the s.c. dose range of 0-10 mg/kg.
Statistical analysis. Drug effects are assessed by statistical comparison of the mean firing rate calculated from the 2-3 min period immediately before the first drug administration (baseline) to the mean firing rate calculated from at least 60 s at the maximal drug effect. Data are analysed statistically by a one-way analysis of variance (ANOVA) followed by Student-Newman-Keuls post hoc test. A p-value less than 0.05 is considered significant.

`CCOC(=O)Nc1ccc(NCc2ccc(F)cc2)cc1N` [Compound 1, reference compound]: the “% Choice of the large but delayed reward on Drug sessions” value in assay [1] (5 mg/kg s.c. 30 min before the test) was found to be 26.7 ± 3.3 %. Besides, the “% Choice of the large but delayed reward on Control sessions” value in assay [1] (placebo administered before control (pre-drug and post-drug) sessions of the same group) is 10.8 ± 2.0%. Also, the “Spontaneous DA cell firing rate in the VTA” value is reported as 95.4 ± 5.0 (4) percentage of baseline firing rate in assay [2] (cumulated dose 0.3 mg/kg i.v.); 90.5 ± 4.6 (5) percentage of baseline firing rate in assay [2] (cumulated dose 1.0 mg/kg i.v.); 81.1 ± 5.1 (5) percentage of baseline firing rate in assay [2] (cumulated dose 2.0 mg/kg i.v.); 67.1 ± 3.7 (4) percentage of baseline firing rate in assay [2] (cumulated dose 4.0 mg/kg i.v.); 60.6 ± 0.7 (2) percentage of baseline firing rate in assay [2] (cumulated dose 6.0 mg/kg i.v.).
